The values below come from publication PMC3436077 (DARU Journal of Pharmaceutical Sciences, 2011).

The subject of series [1] is MDCK II cells. Put plainly: Apical-to-basal transwell transport across MDCK II cell monolayer.
Assay in series [2]: as above
As to conditions: dog, MDCK.

The test system of series [3] is P-glycoprotein (PGP). The series is described as above. As to conditions: dog, MDCK, M6G permeability in the presence of cyclosporine, MDCK II cells, cyclosporine (10 µM), PGP inhibitor.
The conditions of series [4]: mice; cited from earlier work.

Broadly, the Papp is a coefficient for how fast a substance crosses the barrier. Regarding `CN1CC[C@]23c4c5ccc(O)c4O[C@H]2[C@@H](O[C@@H]2O[C@H](C(=O)O)[C@@H](O)[C@H](O)[C@H]2O)C=C[C@H]3[C@H]1C5` [M6G, Morphine-6-glucuronide], the “M6G apical to basal movement relative to morphine (times lower)” value in series [1] (morphine value from earlier paper) is reported as 10 times. Also, in series [1] (t= 100 min, sensitive morphine assay), the “Morphine in apical and basal chambers (de-glucuronidation of M6G)” value is on record as “not a significant or detectable morphine”. Moreover, the Papp at 100 min in series [2] (M6G permeability in the presence of d-glucose, d-glucose 5µ M, MDCK II, P < 0.05) amounted to 2.06 ± 0.02 ×10⁻⁶ cm/s; in series [2] (M6G permeability in the presence of digoxin, digoxin 5µ M, MDCK II, P < 0.05) it was 2.64 ± 0.11 ×10⁻⁶ cm/s; in series [2] (M6G permeability in the presence of probenecid, probenecid 10µ M, MDCK II, P > 0.05) it was 2.95 ± 0.06 ×10⁻⁶ cm/s; in series [2] (Permeability, MDCK II cells, A→B, 100 min, M6G 100 µg/ml, sucrose 8,000,000 DPM/ml, N=4), 2.94 ± 0.03 ×10⁻⁶ cm/s; in series [3] it was 3.16 ± 0.01 ×10⁻⁶ cm/s. Moreover, the Papp at 100 min, 100 µg/ml in series [2] (Permeability ± SD in the presence of morphine, M6G 100 µg/ml + morphine 61,820 ng/ml, MDCK II) came out at 3.31 ± 0.14 ×10⁻⁶ cm/s; in series [2] (Permeability ± SD, M6G 100 µg/ml alone, MDCK II), 2.92 ± 0.02 ×10⁻⁶ cm/s. Besides, the “Change of M6G brain uptake in the presence of digoxin” value in series [4] was “threefold reduction”.
